Results taken from US20030013643A1, “Prevention and treatment of streptococcal and staphylococcal infection” (priority 2000, published 2003).

Columns and labels:
[1] = test system: wild-type GAS, strain 950771; experiment: GAS translocation through polarized human keratinocyte monolayers; assay type: cell-based, Streptococcus pyogenes; conditions: for blocking of translocating GAS: pre-treated 30 minutes with 2 mg/ml, compared to untreated monolayers
Protocol: Human keratinocytes were cultured on 3.0 μm filters to allow polarization and establishment of functional intercellular tight junctions. Cells were infected as described previously with wild-type GAS, strain 950771. To assess the ability of exogenously added HA to inhibit the translocation of GAS through the keratinocyte monolayer, cells were pre-treated for 30 minutes with either 2 mg/ml of hyaluronic acid (HA) or another acidic polysaccharide, alginate (AL), at the same concentration. Aliquots of media from the lower chamber of infected keratinocyte monolayers were cultured on blood agar plates at 1 and 2 hours after inoculation with bacteria to assess the number of translocating bacteria. […] In contrast only 20% and 25% of the wild-type bacteria were blocked by AL at 1 and 2 hours, respectively.
(§1) GAS strains were 950771, an M-type 3 strain originally isolated from a child with necrotizing fasciitis, and 188, an isogenic acapsular mutant derived from 950771 (Ashbaugh, C. D., et al., (1998) J. Clin. Invest. 102, 550-560). Bacteria were cultured in Todd Hewitt broth (Difco, Sparks, Md.) to early exponential phase. For preparation of polarized keratinocyte monolayers, human squamous cell carcinoma cell line, SCC13, derived from cheek epidermis (Cline, P. R. & Rice, R. H. (1983) Cancer Res. 43, 3203-3207) was cultured to confluence in serum-free keratinocyte medium (Gibco BRL, Rockville, Md.) supplemented with 50 μg/ml bovine pituitary extract, 0.1 ng/ml epidermal growth factor and 0.3 mM calcium chloride (c-SFM). Certain experiments were performed also using cell monolayers prepared from OKP7 primary human keratinocytes (Crowe et al. (1991) Differentiation 48, 199-208). Keratinocytes were seeded at 5×10^5 cells per well onto polycarbonate Transwell membrane supports (12-well plates, 3.0 μm pore size; Costar, Corning, N.Y.) and cultured for 6-10 days at 37° C. with 5% CO2 in c-SFM, with daily medium changes. Once confluent, the integrity of the monolayer was assessed routinely by measuring permeability to sodium fluorescein (Tchao, R. (1988) Alternative Methods in Toxicology (eds. Goldberg, A. M.) 271-283 (Ann Liebert, N.Y.) and, in some experiments, by measuring transepithelial electrical resistance (McNamara, B. P., et al. (2001) J Clin Invest 107, 621-9).
Keratinocyte monolayers on Transwells were inoculated with GAS at a multiplicity of infection of 10 per keratinocyte. Monolayers were incubated at 37° C. with 5% CO2. The keratinocyte medium in the upper chamber was replaced two hours after adding GAS, and the Transwell inserts containing the keratinocytes were moved to new wells containing fresh medium every 2 hours to prevent overgrowth of translocated bacteria. Translocation was assessed by quantitative cultures of medium from the lower chamber at 2 hour intervals.
As a model of the movement of GAS from the pharyngeal mucosa or skin surface into underlying tissue, GAS translocation was studied in vitro through keratinocyte monolayers. Two hours after inoculation onto the surface of a confluent keratinocyte monolayer, wild-type GAS was detected in the culture medium below the membrane support, indicating migration of the organisms through the monolayer. At each of several intervals after inoculation, approximately 20 to 100 times as many GAS were recovered below monolayers inoculated with wild-type GAS compared to those inoculated with the acapsular mutant strain.(Figure 12a). […] Compared to wild-type GAS strain 950771, the efficiency of translocation was similar for wild-type GAS strains 87-282, a highly encapsulated M-type 18 strain, and for DLS003, a poorly encapsulated M-type 3 strain. Translocation of wild-type GAS was reduced by 78% at 1 hour in experiments in which the keratinocyte monolayers were pretreated with monoclonal antibody IM7.8.1 to block interaction of the GAS capsule with CD44 . […]

[2] = test system: human keratinocytes; experiment: Confocal microscopy of actin projections / lamellipodia in keratinocytes exposed to wild-type GAS; assay type: cell-based; conditions: incubation of keratinocytes with inhibitor
Protocol: as §1, with “Keratinocytes were seeded at 5×10^5 cells per well onto polycarbonate Transwell membrane supports (12-well plates, 3.0 μm pore size; Costar, Corning, N.Y.) and cultured for 6-10 days at 37° C. with 5% CO2 in c-SFM, with daily medium changes.” left out, “621-9). […]” for “621-9).”

[3] = test system: human keratinocytes; experiment: Immunofluorescent staining of ZO-1 and E-cadherin at intercellular junctions of keratinocytes exposed to GAS; assay type: cell-based; conditions: pretreatment of keratinocytes; wild-type GAS
Protocol: Keratinocyte monolayers were fixed with 4% paraformaldehyde in phosphate buffered saline (PBS), washed, permeabilized with 0.1% Triton X-100 in PBS, then incubated with 0.5% bovine serum albumin in PBS to block non-specific binding sites prior to antibody staining. Primary antibodies included rabbit IgG antibody to GAS group A carbohydrate (ImmuCell, Portland, Me.) at 5 μg/ml, rat monoclonal anti-mouse CD44 (clone IM7.8. 1) (Schrager, H. M., et al., (1998) J. Clin. Invest. 101, 1708-1716) at 15 μg/ml, goat IgG anti-ezrin at 2 μg/ml (Santa Cruz Biotechnology, Santa Cruz, Calif.), goat IgG anti-Rac1 at 2 μg/ml (Santa Cruz Biotechnology), mouse anti-phosphotyrosine at 2 μg/ml (PY-Plus, Zymed Laboratories, Inc., San Francisco, Calif.), rabbit anti-ZO-1 at 2 μg/ml (Zymed), goat anti-E-cadherin at 2 μg/ml (Santa Cruz Biotechnology), and mouse anti-myc monoclonal antibody 9E10 (Santa Cruz Biotechnology). Secondary antibodies included, as appropriate, Texas red- or Alexa 660-conjugated anti-rabbit IgG (Molecular Probes, Eugene, Oreg.), Alexa 568-conjugated anti-rabbit, anti-goat, or anti-rat IgG (Molecular Probes), and FITC-conjugated anti-goat or anti-mouse IgG (Sigma), each diluted 1:250 in 0.5% BSA/PBS. Cellular actin was labeled with 165 nm phalloidin conjugated to Oregon green 514 or to Alexa 488 (Molecular Probes). […]

[4] = test system: GAS; experiment: GAS attachment to murine keratinocyte cell line PAM2.12 with exogenous hyaluronic acid; assay type: cell-based, Streptococcus pyogenes; conditions: control polysaccharide, concentration printed 1 /ml
Protocol: For bacterial adherence assays, keratinocytes were seeded at 10^5 cells per well in collagen-coated tissue culture wells (Nalge Nunc International, Naperville, Ill.), incubated for 3 days at 34° C. in 8% CO2, washed, and overlaid with medium containing 10^6 CFU of GAS per well. After incubation for 1 hour at 34° C. in 8% CO2 the keratinocyte monolayers were washed twice to remove nonadherent bacteria, then the number of cell-associated bacteria was determined by quantitative culture after releasing the keratinocytes with try spin and lysing them in sterile water, experiments testing the effects of exogenous hyaluronic acid on GAS adherence were performed using the mouse keratinocyte cell line, PAM 2.12 (Song, I. S. 2000, Exp. Dermatol. 9:42-52). Cells were seeded in collagen-coated tissue culture wells at 10^5 cells per well, cultured for 3 days at 37° C. in 5% CO2, then inoculated with 10^6 CFU of GAS per well in medium containing exogenous hyaluronic acid (from rooster comb, Sigma Chemicals, St. Louis, Mo.), no inhibitor, or a control polysaccharide, alginic acid, a high-molecular-weight polymer of mannuronic acid and guluronic acid (Protonal Durvillea Alginate, Pronova. Biopolymer, Inc., Portsmouth, N.H.). Cells were incubated for 45 minutes at 37° C. in 5% CO2, then processed for enumeration of adherent bacteria as described above. In experiments to test whether exogenous hyaluronic acid could promote dissociation of GAS attached to keratinocytes, GAS were allowed to attach to keratinocytes in the absence of inhibitor; after 45 minutes, the medium was removed and replaced with fresh medium containing hyaluronic acid, no inhibitor, or alginic acid. After 45 minutes of incubation, the number of adherent bacteria was enumerated as described above.
To investigate the specificity of the interaction between the GAS capsule and CD44 on epithelial cells, the ability of exogenous hyaluronic acid to compete with GAS for binding to murine keratinocytes was examined. Addition of exogenous hyaluronic acid to concentration 1 mg/ml[…], inhibited GAS attachment to the murine keratinocyte cell line PAM2.12 by >95% (P<0.03, FIG. 5). A concentration of 1 /ml alginic acid, another high molecular weight acidic polysaccharide, had no effect, supporting the hypothesis that adherence depends on a specific interaction between the GAS hyaluronic acid capsule and CD44 .
In addition to the 1 mg/ml concentration of hyaluronic acid, additional trials were performed as indicated above, with a range of concentrations of hyaluronic acid added to the cells. The concentrations tested included 4 mg/ml, 2 mg/ml, 1 mg/ml, 0.75 mg/ml, 0.5 mg/ml, 0.25 mg/ml and 0.1 mg/ml. The hyaluronic acid concentrations from 4 mg/ml to 0.25 mg/ml blocked GAS binding by greater than 70%. Hyaluronic acid concentrations from 4 mg/ml to 0.5 mg/ml blocked GAS binding by greater than 80% (FIG. 6).

[5] = test system: GAS; experiment: GAS translocation through abraded human skin equivalent; assay type: cell-based, Streptococcus pyogenes; conditions: pre-treated at 2 mg/ml for 1 hour; 4 hour infection period
Protocol: To examine GAS translocation in a model system similar to normal human skin, we utilized pseudo-organ cultures of human skin equivalent. This material is made by constructing a “dermis” that consists of human fibroblasts cultured in a collagen matrix; human foreskin keratinocytes are seeded on top of the dermal equivalent and cultured under conditions that promote differentiation into a stratified squamous epithelium with a stratum comeum. The histology of the human skin equivalent is very similar to that of normal human skin except for the absence of non-keratinocyte elements such as blood vessels and hematopoietic cells, nerves, and hair follicles. Since intact human skin is highly resistant to GAS infection, we simulated minor trauma to the superficial epidermis by abrading the surface of the skin equivalent with a cytology brush to introduce breaks in the stratum corneum. GAS were inoculated onto the surface of abraded skin equivalent that had either been pre-treated with nothing, HA, or AL at 2 mg/ml for 1 hour and translocation through the tissue was monitored by culture of GAS from the basal surface of the skin equivalent at intervals. As depicted in FIG. 10, HA inhibited translocation GAS by 91% (solid bars). In comparison the AL control prevented only 14% of bacteria from translocating through the skin equivalent during the 4 hour infection period. […]

| Compound | reduction of maximum number of translocated GAS ([1]; 250 μM, at 4 hours) | earliest detectable translocation of wild-type GAS ([1]; 250 μM, delayed from 30 min without inhibitor) [h] | formation of lamellipodia in response to GAS [2] | redistribution (loss) of ZO-1 and E-cadherin from intercellular junctions [3] | effect on GAS attachment to PAM2.12 [4] | blocking of translocating GAS ([1]; 1 hour after inoculation) [%] | blocking of translocating GAS ([1]; 2 hours after inoculation) [%] | inhibition of translocation of GAS through skin equivalent [5] [%] |
| --- | --- | --- | --- | --- | --- | --- | --- | --- |
| O=c1c(-c2ccc(O)cc2)coc2cc(O)cc(O)c12 [genistein] | approximately 80% | 1 | inhibit formation of lamellipodia | prevented | – | – | – | – |
| alginic acid | – | – | – | – | no effect | 20 | 25 | 14 |
